Key:
Assay in all cases: combination Emax (second highest fraction inhibited in the dose matrix, 72 h); higher = more inhibition; extreme values may be limits of the assay
[1] = tested on: RPMI-8402 (T-Lymphoblastic Leukemia)
How it was run: (§1)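 After 24 hours at 37°C and 5% CO2 in 1536-well plates, cells in DMEM/F12 or RPMI plus 10% FBS received two-drug dose matrices for 72 hours. Viability came from CellTiter-Glo 2.0 luminescence and was scaled as inhibition, anchored at 0 by vehicle wells and at 1 by blank wells. Combination Emax is taken as the second-highest inhibition in the matrix, and Bliss excess as the observed combination effect less EA + EB − EA·EB, with EA and EB the single-agent effects.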

[2] = tested on: NCI-H2452 (Mesothelioma)
How it was run: as §1

[3] = tested on: TOV-21G (Ovarian Carcinoma)
How it was run: as §1

[4] = tested on: BT-474 (Breast Carcinoma)
How it was run: as §1

[5] = tested on: SCC90 (Head and Neck Carcinoma)
How it was run: as §1

[6] = tested on: A375 (Melanoma)
How it was run: as §1

[7] = tested on: SNU-1 (Gastric Carcinoma)
How it was run: as §1

[8] = tested on: NCI-H2023 (Non-Small Cell Lung Carcinoma)
How it was run: as §1

[9] = tested on: NTERA-2-cl-D1 (Other Solid Carcinomas)
How it was run: as §1

[10] = tested on: RS4-11 (B-Lymphoblastic Leukemia)
How it was run: as §1

[11] = tested on: C2BBe1 (Colorectal Carcinoma)
How it was run: as §1

[12] = tested on: NCI-H1975 (Lung Adenocarcinoma)
How it was run: as §1

[13] = tested on: OCI-M1 (Acute Myeloid Leukemia)
How it was run: as §1

[14] = tested on: JURL-MK1 (Chronic Myelogenous Leukemia)
How it was run: as §1

[15] = tested on: SBC-5 (Small Cell Lung Carcinoma)
How it was run: as §1

[16] = tested on: COR-L105 (Lung Adenocarcinoma)
How it was run: as §1

[17] = tested on: SK-N-DZ (Neuroblastoma)
How it was run: as §1

[18] = tested on: NCI-H2009 (Lung Adenocarcinoma)
How it was run: as §1

[19] = tested on: OVKATE (Ovarian Carcinoma)
How it was run: as §1

Compound	combination Emax [1]	combination Emax [2]	combination Emax [3]	combination Emax [4]	combination Emax [5]	combination Emax [6]	combination Emax [7]	combination Emax [8]	combination Emax [9]	combination Emax [10]	combination Emax [11]	combination Emax [12]	combination Emax [13]	combination Emax [14]	combination Emax [15]	combination Emax [16]	combination Emax [17]	combination Emax [18]	combination Emax [19]
CC1(C)CCC(CN2CCN(c3ccc(C(=O)NS(=O)(=O)c4ccc(NCC5CCOCC5)c([N+](=O)[O-])c4)c(Oc4cnc5[nH]ccc5c4)c3)CC2)=C(c2ccc(Cl)cc2)C1 [Venetoclax] + C[C@@H](Nc1cc(F)cc(F)c1)c1cc(C(=O)N(C)C)cc2c(=O)cc(N3CCOCC3)oc12 [AZD8186] (first compound max 1 µM, 7x7, partner max 3 µM)	0.431	0.268	0.149	0.163	0.29	0.109	0.154	0.416	0.805	1	0.318	0.22	0.0849	0.095	0.163	0.24	0.256	0.445	0.262
CC1(C)CCC(CN2CCN(c3ccc(C(=O)NS(=O)(=O)c4ccc(NCC5CCOCC5)c([N+](=O)[O-])c4)c(Oc4cnc5[nH]ccc5c4)c3)CC2)=C(c2ccc(Cl)cc2)C1 [Venetoclax] + C[C@@H]1COCCN1C2=NC(=NC(=C2)C3(CC3)[S@](=N)(=O)C)C4=C5C=CNC5=NC=C4 [AZD6738] (first compound max 1 µM, 7x7, partner max 10 µM)	0.992	0.573	0.785	0.206	0.373	0.674	0.798	0.729	0.881	1	0.461	0.433	1	1	0.792	0.421	0.946	0.415	0.407
CC1(C)CCC(CN2CCN(c3ccc(C(=O)NS(=O)(=O)c4ccc(NCC5CCOCC5)c([N+](=O)[O-])c4)c(Oc4cnc5[nH]ccc5c4)c3)CC2)=C(c2ccc(Cl)cc2)C1 [Venetoclax] + Cc1cc2ncnn2cc1Nc1ncc2c(n1)n(C1CCOCC1)c(=O)n2C [AZD7648] (first compound max 1 µM, 7x7, partner max 10 µM)	0.287	0.259	0.195	0.197	0.351	0.233	0.288	0.392	0.743	1	0.278	0.392	0.234	0.356	0.212	0.274	0.399	0.12	0.28
CC1(C)CCC(CN2CCN(c3ccc(C(=O)NS(=O)(=O)c4ccc(NCC5CCOCC5)c([N+](=O)[O-])c4)c(Oc4cnc5[nH]ccc5c4)c3)CC2)=C(c2ccc(Cl)cc2)C1 [Venetoclax] + C=CCn1c(=O)c2cnc(Nc3ccc(N4CCN(C)CC4)cc3)nc2n1-c1cccc(C(C)(C)O)n1 [AZD1775] (first compound max 1 µM, partner max 1 µM)	1	0.739	0.703	0.516	0.838	0.505	0.769	0.713	0.856	1	0.39	0.393	0.912	0.999	0.459	0.372	0.999	0.637	0.381
CC1(C)CCC(CN2CCN(c3ccc(C(=O)NS(=O)(=O)c4ccc(NCC5CCOCC5)c([N+](=O)[O-])c4)c(Oc4cnc5[nH]ccc5c4)c3)CC2)=C(c2ccc(Cl)cc2)C1 [Venetoclax] + Cn1cnc2c(F)c(Nc3ccc(Br)cc3Cl)c(C(=O)NOCCO)cc21 [Selumetinib] (first compound max 1 µM, 7x7, partner max 3 µM)	0.084	0.181	0.216	0.0915	0.726	0.686	0.221	0.177	0.742	1	0.329	0.28	0.483	0.876	0.18	0.362	0.246	0.184	0.217

Reference: the supplement of paper PMC11061612
